Experimental data published in the CheMixHub ionic liquid set.

Experiment: xn = mol fraction of the nth substance listed

COCCOCCO + CCCC[n+]1ccn(C)c1.F[P-](F)(F)(F)(F)F
100 kPa
Details	viscosity [mPa·s]
283.15 K, x2 = 0.05331	7.5
283.15 K, x2 = 0.09804	9.72
283.15 K, x2 = 0.19	15.75
283.15 K, x2 = 0.2921	25.91
283.15 K, x2 = 0.384	39.17
283.15 K, x2 = 0.4556	57.5
283.15 K, x2 = 0.5782	97.4
283.15 K, x2 = 0.6754	141.2
283.15 K, x2 = 0.7826	218.3
283.15 K, x2 = 0.8947	394
283.15 K, x2 = 0.9428	522
293.15 K, x2 = 0.04991	5.319
293.15 K, x2 = 0.09685	6.745
293.15 K, x2 = 0.1962	10.81
293.15 K, x2 = 0.291	16.42
293.15 K, x2 = 0.4	25.65
293.15 K, x2 = 0.5144	42.34
293.15 K, x2 = 0.5864	52.18
293.15 K, x2 = 0.673	67.5
293.15 K, x2 = 0.7866	103.1
293.15 K, x2 = 0.8943	187.6
293.15 K, x2 = 0.945	239.3
303.15 K, x2 = 0.05183	4.124
303.15 K, x2 = 0.09655	5.063
303.15 K, x2 = 0.1884	7.095
303.15 K, x2 = 0.2922	11.15
303.15 K, x2 = 0.3935	16.31
303.15 K, x2 = 0.5055	26.04
303.15 K, x2 = 0.5816	33.29
303.15 K, x2 = 0.6785	45.05
303.15 K, x2 = 0.7725	63.3
303.15 K, x2 = 0.9022	113.3
303.15 K, x2 = 0.9392	142.8
313.15 K, x2 = 0.04989	3.16
313.15 K, x2 = 0.09747	3.842
313.15 K, x2 = 0.1914	5.61
313.15 K, x2 = 0.2888	8.03
313.15 K, x2 = 0.3854	11.32
313.15 K, x2 = 0.4724	15.18
313.15 K, x2 = 0.5945	23.13
313.15 K, x2 = 0.6785	31.11
313.15 K, x2 = 0.7835	46.19
313.15 K, x2 = 0.8966	73.1
313.15 K, x2 = 0.9583	96.7

COCCOCCO + CCCC[n+]1ccn(C)c1.F[B-](F)(F)F
100 kPa
Details	viscosity [mPa·s]
283.15 K, x2 = 0.05366	7.07
283.15 K, x2 = 0.09486	8.3
283.15 K, x2 = 0.1969	12.44
283.15 K, x2 = 0.2893	17.54
283.15 K, x2 = 0.3913	25.12
283.15 K, x2 = 0.4909	35.39
283.15 K, x2 = 0.5826	48.46
283.15 K, x2 = 0.6949	71.9
283.15 K, x2 = 0.7838	100
283.15 K, x2 = 0.8792	145
283.15 K, x2 = 0.9489	192.9
293.15 K, x2 = 0.04883	4.923
293.15 K, x2 = 0.09356	5.88
293.15 K, x2 = 0.192	8.36
293.15 K, x2 = 0.292	11.92
293.15 K, x2 = 0.3812	15.94
293.15 K, x2 = 0.4892	22.53
293.15 K, x2 = 0.5841	30.52
293.15 K, x2 = 0.6808	41.95
293.15 K, x2 = 0.7796	58.1
293.15 K, x2 = 0.8752	81.9
293.15 K, x2 = 0.9414	109.4
303.15 K, x2 = 0.05005	3.91
303.15 K, x2 = 0.1374	4.662
303.15 K, x2 = 0.2026	6.323
303.15 K, x2 = 0.2965	8.36
303.15 K, x2 = 0.3975	11.28
303.15 K, x2 = 0.491	15.38
303.15 K, x2 = 0.5868	20.14
303.15 K, x2 = 0.6897	27.27
303.15 K, x2 = 0.7826	36.34
303.15 K, x2 = 0.8807	50.95
303.15 K, x2 = 0.9393	63.1
313.15 K, x2 = 0.04527	2.966
313.15 K, x2 = 0.09794	3.523
313.15 K, x2 = 0.2017	4.838
313.15 K, x2 = 0.2869	6.194
313.15 K, x2 = 0.3858	8.06
313.15 K, x2 = 0.4987	10.87
313.15 K, x2 = 0.5953	13.94
313.15 K, x2 = 0.6918	18.09
313.15 K, x2 = 0.7818	23.11
313.15 K, x2 = 0.8804	29.78
313.15 K, x2 = 0.9409	34.99

COP(=O)([O-])OC.Cn1cc[n+](C)c1 + CCO
Details	viscosity [mPa·s]
293.15 K, 100 kPa, x1 = 0.1005	3.24
293.15 K, 100 kPa, x1 = 0.797	160.9
293.15 K, 101 kPa, x2 = 0.5028	37.73
293.15 K, 101 kPa, x2 = 0.6	24.37
293.15 K, 101 kPa, x2 = 0.7999	6.29
293.15 K, 101 kPa, x2 = 0.9	3.118
298.15 K, 100 kPa, x1 = 0.7009	84.1
298.15 K, 100 kPa, x1 = 0.8995	169.2
298.15 K, 101 kPa, x1 = 0.2011	5.8
298.15 K, 101 kPa, x1 = 0.5056	36.2
298.15 K, 101 kPa, x1 = 0.8017	132.7
298.15 K, 101 kPa, x2 = 0.4074	60.9
298.15 K, 101 kPa, x2 = 0.6	21.18
303.15 K, 100 kPa, x1 = 0.1005	2.62
303.15 K, 100 kPa, x1 = 0.2006	5.25
303.15 K, 100 kPa, x1 = 0.3005	9.92
303.15 K, 101 kPa, x2 = 0.0999	173.7
303.15 K, 101 kPa, x2 = 0.7999	5.01
308.15 K, 100 kPa, x1 = 0.8995	94.2
308.15 K, 100 kPa, x1 = 1	123.3
308.15 K, 101 kPa, x2 = 0.5028	21.92
308.15 K, 101 kPa, x2 = 0.6992	9.29
313.15 K, 100 kPa, x1 = 0.4031	12.72
313.15 K, 100 kPa, x1 = 0.797	54.3
313.15 K, 101 kPa, x1 = 0.2011	4.2
313.15 K, 101 kPa, x1 = 0.5056	21.2
313.15 K, 101 kPa, x1 = 0.8017	60.8
318.15 K, 100 kPa, x1 = 0.3005	7.04
318.15 K, 100 kPa, x1 = 0.7009	33.29
318.15 K, 100 kPa, x1 = 1	72.2
318.15 K, 101 kPa, x2 = 0	92.8
318.15 K, 101 kPa, x2 = 0.7999	3.702
323.15 K, 100 kPa, x1 = 0.3005	6.41
323.15 K, 100 kPa, x1 = 0.7009	27.5
323.15 K, 100 kPa, x1 = 0.797	35.24
323.15 K, 100 kPa, x1 = 0.8995	45.63
323.15 K, 101 kPa, x2 = 0.0999	63.7
323.15 K, 101 kPa, x2 = 0.9	1.819
328.15 K, 100 kPa, x1 = 0.4996	12.51
328.15 K, 100 kPa, x1 = 0.797	29.03
333.15 K, 100 kPa, x1 = 0.1005	1.36
333.15 K, 100 kPa, x1 = 0.3005	5.46
333.15 K, 100 kPa, x1 = 0.7009	19.59
333.15 K, 100 kPa, x1 = 0.8995	30.39
333.15 K, 101 kPa, x1 = 0.2011	2.9
333.15 K, 101 kPa, x1 = 0.5056	11.9
333.15 K, 101 kPa, x1 = 0.8017	28
338.15 K, 100 kPa, x1 = 0.4996	9.9

CC(C)=O + CCCC[n+]1ccn(C)c1.O=S(=O)([N-]S(=O)(=O)C(F)(F)F)C(F)(F)F
296.35 K, 100 kPa, frequency 0.01 MHz
Details	electrical conductivity [S/m]
x2 = 0.01616	1.1
x2 = 0.0257	2.71
x2 = 0.0419	4.22
x2 = 0.07374	5.7
x2 = 0.1478	4.72

CC(C)(C)O + CCCC[n+]1ccn(C)c1.O=S(=O)([N-]S(=O)(=O)C(F)(F)F)C(F)(F)F
298 K, 101 kPa
Details	electrical conductivity [S/m]	viscosity [mPa·s]
x1 = 0.6042	0.52	–
x1 = 0.653	0.504	–
x1 = 0.8516	–	9.27
x2 = 0.0182	–	4.38

CCCCCCCCCCCCCCCC[n+]1ccccc1.O=C([O-])C(O)c1ccccc1 + O
electrical conductivity [S/m], 101 kPa
Details	293.15 K	298.15 K	303.15 K	308.15 K	313.15 K
x1 = 1.08e-06	0.00061	0.00068	0.00076	0.00083	0.0009
x1 = 1.98e-06	0.001	0.0012	0.0013	0.0014	0.0016
x1 = 2.88e-06	0.00147	0.0016	0.0018	0.002	0.0022
x1 = 3.96e-06	0.0019	0.0022	0.0024	0.0026	0.0029
x1 = 4.69e-06	0.0023	0.0026	0.0029	0.0031	0.0035
x1 = 5.95e-06	0.00281	0.0032	0.0035	0.0038	0.0042
x1 = 7.21e-06	0.00341	0.0038	0.0042	0.0046	0.0051
x1 = 8.83e-06	0.00406	0.0046	0.005	0.0055	0.006
x1 = 1.045e-05	0.00469	0.0053	0.0058	0.0065	0.0071
x1 = 1.207e-05	0.00516	0.0058	0.0064	0.0071	0.0079
x1 = 1.351e-05	0.00562	0.00631	0.007	0.0077	0.0085
x1 = 1.478e-05	0.00603	0.0068	0.0075	0.0083	0.0092
x1 = 1.622e-05	0.00644	0.0072	0.008	0.0089	0.0098
x1 = 1.766e-05	0.00687	0.0077	0.0085	0.0094	0.0104
